Results reported in US8211922B2, “1-methylnicotinamide derivatives and formulations for treatment of lipoprotein abnormalities” (Cortria Corporation, priority 2005, dated 2012).

Columns and labels:
[1] = Binding to Sepharose immobilized heparin; conditions: as a cationic molecule
[2] = test system: patients on permanent therapy with simvastatin; assay: Safety of co-administration of MNA with statins; format: in vivo, human
Description: A group of 10 patients (4 females and 6 males, ages 38-79) on permanent therapy with simvastatin (10-20 mg/day) were selected for the study. In addition to simvastatin each patient received MNA in daily dose of 90 mg/day for six weeks. The clinical chemistry parameters were monitored during three doctor's visits: two weeks before, just before and after six weeks of MNA administration.

dyslipidemic patients = assay: Anti-atherogenic effect of MNA after long term use (13 months), plasma lipids in patients; format: in vivo, human; conditions: for HDL % / TG % / TG/HDL % / Total Cholesterol % / LDL %: change vs time 0
Description: The anti-atherogenic effect of MNA was investigated in 2 dyslipidemic patients. The enrollment criteria was: high level of TG (≧250 mg/dl) and/or high level of TC (≧200 mg/dl). The patients were treated with MNA for 13 months. The MNA was administered orally, two times a day (50 mg MNA) after meal.
The plasma levels of TC, TG, and HDL were measured at baseline and during the therapy. The level of LDL was measured in those cases where it was possible (due to high TG level).

[3] = MNA 90 mg/day for six weeks co-administered with simvastatin (10-20 mg/day), 10 patients
[4] = 2 dyslipidemic patients, 50 mg MNA orally two times a day, 13 months

Question: Which “Binding to Sepharose immobilized heparin” value [1] does the source give for 1-methylnicotinamide chloride [MNA] here?
Answer: bound

Question: And the “Clinical chemistry parameters (liver enzymes AST and ALT, creatinine, urea, glucose and homocysteine)” value [2, 3]?
Answer: not changed within the measurements accuracy

Question: And the “Negative effects on patient examination” value [2, 3]?
Answer: no negative effects were observed

Question: And the Adverse synergistic effects ([2]; MNA co-administration with statins)?
Answer: does not result in any adverse synergistic effects

Question: What about the TC level (dyslipidemic patients; [4]) of the same substance?
Answer: reduced significantly

Question: And the TG level (dyslipidemic patients; [4])?
Answer: reduced significantly

Question: And the HDL levels (dyslipidemic patients; 2 dyslipidemic patients, after only a few months of therapy)?
Answer: increase

Question: And the TG/HDL ratio (dyslipidemic patients; 2 dyslipidemic patients, long term use)?
Answer: reduction

Question: And the TG (dyslipidemic patients; Patient 1, 50 mg MNA orally two times a day, 1.5 months)?
Answer: 218 mg/dL

Question: What about the TG (dyslipidemic patients; Patient 1, 50 mg MNA orally two times a day, 6 months) of the same substance?
Answer: 255 mg/dL

Question: What about the TG (dyslipidemic patients; Patient 1, 50 mg MNA orally two times a day, 12 months) of the same substance?
Answer: 315 mg/dL

Question: What about the HDL (dyslipidemic patients; Patient 1, 1.5 months) of the same substance?
Answer: 28.0 mg/dL

Question: And the LDL (dyslipidemic patients; Patient 1, 1.5 months)?
Answer: 81.4 mg/dL

Question: And the TG/HDL (dyslipidemic patients; Patient 1, 1.5 months)?
Answer: 7.79

Question: What about the “Total Cholesterol” value (dyslipidemic patients; Patient 1, 1.5 months) of the same substance?
Answer: 153 mg/dL

Question: What about the HDL (dyslipidemic patients; Patient 1, 6 months) of the same substance?
Answer: 38.6 mg/dL

Question: And the LDL (dyslipidemic patients; Patient 1, 6 months)?
Answer: 87.0 mg/dL

Question: What about the TG/HDL (dyslipidemic patients; Patient 1, 6 months) of the same substance?
Answer: 6.61

Question: And the “Total Cholesterol” value (dyslipidemic patients; Patient 1, 6 months)?
Answer: 177 mg/dL

Question: And the HDL (dyslipidemic patients; Patient 1, 12 months)?
Answer: 48.1 mg/dL

Question: What about the LDL (dyslipidemic patients; Patient 1, 12 months) of the same substance?
Answer: 118.0 mg/dL

Question: What about the TG/HDL (dyslipidemic patients; Patient 1, 12 months) of the same substance?
Answer: 6.55

Question: And the “Total Cholesterol” value (dyslipidemic patients; Patient 1, 12 months)?
Answer: 229 mg/dL

Question: What about the HDL % (dyslipidemic patients; Patient 1, 1.5 months) of the same substance?
Answer: −8.79%

Question: What about the TG % (dyslipidemic patients; Patient 1, 1.5 months) of the same substance?
Answer: −77.39%

Question: What about the TG/HDL % (dyslipidemic patients; Patient 1, 1.5 months) of the same substance?
Answer: −75.21%

Question: And the “Total Cholesterol %” value (dyslipidemic patients; Patient 1, 1.5 months)?
Answer: −48.66%

Question: And the HDL % (dyslipidemic patients; Patient 1, 6 months)?
Answer: 25.73%

Question: And the TG % (dyslipidemic patients; Patient 1, 6 months)?
Answer: −73.55%

Question: What about the TG/HDL % (dyslipidemic patients; Patient 1, 6 months) of the same substance?
Answer: −78.96%

Question: What about the “Total Cholesterol %” value (dyslipidemic patients; Patient 1, 6 months) of the same substance?
Answer: −40.60%

Question: And the HDL % (dyslipidemic patients; Patient 1, 12 months)?
Answer: 56.68%

Question: What about the TG % (dyslipidemic patients; Patient 1, 12 months) of the same substance?
Answer: −67.32%

Question: And the TG/HDL % (dyslipidemic patients; Patient 1, 12 months)?
Answer: −79.14%

Question: And the “Total Cholesterol %” value (dyslipidemic patients; Patient 1, 12 months)?
Answer: −23.15%

Question: And the TG (dyslipidemic patients; Patient 2, 50 mg MNA orally two times a day, 7 months)?
Answer: 269 mg/dL

Question: What about the TG (dyslipidemic patients; Patient 2, 50 mg MNA orally two times a day, 13 months) of the same substance?
Answer: 160 mg/dL

Question: What about the HDL (dyslipidemic patients; Patient 2, 7 months) of the same substance?
Answer: 79.0 mg/dL

Question: And the LDL (dyslipidemic patients; Patient 2, 7 months)?
Answer: 128.0 mg/dL

Question: And the TG/HDL (dyslipidemic patients; Patient 2, 7 months)?
Answer: 3.41

Question: And the “Total Cholesterol” value (dyslipidemic patients; Patient 2, 7 months)?
Answer: 261 mg/dL

Question: What about the HDL (dyslipidemic patients; Patient 2, 13 months) of the same substance?
Answer: 70.8 mg/dL

Question: What about the LDL (dyslipidemic patients; Patient 2, 13 months) of the same substance?
Answer: 106.8 mg/dL

Question: And the TG/HDL (dyslipidemic patients; Patient 2, 13 months)?
Answer: 2.26

Question: And the “Total Cholesterol” value (dyslipidemic patients; Patient 2, 13 months)?
Answer: 210 mg/dL

Question: What about the HDL % (dyslipidemic patients; Patient 2, 7 months) of the same substance?
Answer: 79.55%

Question: What about the LDL % (dyslipidemic patients; Patient 2, 7 months) of the same substance?
Answer: −53.11%

Question: And the TG % (dyslipidemic patients; Patient 2, 7 months)?
Answer: −10.93%

Question: And the TG/HDL % (dyslipidemic patients; Patient 2, 7 months)?
Answer: −50.39%

Question: And the “Total Cholesterol %” value (dyslipidemic patients; Patient 2, 7 months)?
Answer: −28.49%

Question: What about the HDL % (dyslipidemic patients; Patient 2, 13 months) of the same substance?
Answer: 60.91%

Question: And the LDL % (dyslipidemic patients; Patient 2, 13 months)?
Answer: −60.88%

Question: And the TG % (dyslipidemic patients; Patient 2, 13 months)?
Answer: −47.02%

Question: And the TG/HDL % (dyslipidemic patients; Patient 2, 13 months)?
Answer: −67.07%

Question: And the “Total Cholesterol %” value (dyslipidemic patients; Patient 2, 13 months)?
Answer: −42.47%
